Results on 8 compounds are retold here after patent US12370161B2, “Composition for treating atopy or pruritus comprising N-acetyl or N-acyl amino acid” (STEMDR INC., priority 2017, dated 2025).

For this experiment, the system named is atopic dermatitis-induced Balb/c mouse. In words: SCORAD clinical skin score, DNFB-induced atopic dermatitis in Balb/c mouse. The arrangement: key to Mouse 1 Sum / Mean (of Sum, SCORAD) / Mouse 2 Sum / Mouse 3 Sum: sum of symptom grades, each 0 (none) to 3 (severe). The format is in vivo. To be noted: DNFB Balb/c; for Mouse 1 Erythema: 0.1% in PBS, 200 μL on back skin daily day 22-28, grade 0-3 (0 no symptom, 1 mild, 2 moderate, 3 severe); for Mouse 1 Abrasion / Mouse 1 Dryness / Mouse 1 Edema / Mouse 1 Eschar / Mouse 1 Lichenification / Mouse 1 Sum / Mouse 2 Abrasion / Mouse 2 Dryness / Mouse 2 Edema / Mouse 2 Erythema / Mouse 2 Eschar / Mouse 2 Lichenification / Mouse 2 Sum / Mouse 3 Abrasion / Mouse 3 Dryness / Mouse 3 Edema / Mouse 3 Erythema / Mouse 3 Eschar / Mouse 3 Lichenification / Mouse 3 Sum / Mean (of Sum, SCORAD): 0.1% topical day 22-28; for Mouse 1 Abrasion / Mouse 1 Dryness / Mouse 1 Edema / Mouse 1 Eschar / Mouse 1 Lichenification / Mouse 2 Abrasion / Mouse 2 Dryness / Mouse 2 Edema / Mouse 2 Erythema / Mouse 2 Eschar / Mouse 2 Lichenification / Mouse 3 Abrasion / Mouse 3 Dryness / Mouse 3 Edema / Mouse 3 Erythema / Mouse 3 Eschar / Mouse 3 Lichenification: grade 0-3; for Mouse 1 Sum / Mouse 2 Sum / Mouse 3 Sum: overall dermatitis score, sum of individual scores; for Mean (of Sum, SCORAD): mean of 3 mice. The protocol:
In order to induce atopy-like dermatitis in Balb/c mice, DNFB sensitization was induced by applying 100 μL of 0.35% 2,4-dinitrofluorobenzene (DNFB) (Sigma, USA) in acetone/olive oil (3:1) on the shaved back skin of the mice. Then, dermatitis was induced by applying 100 μL of 0.25% DNFB on days 6, 9, 12, 15, 18 21, 24 and 27 on the shaved back skin. Control mice were treated with a vehicle of the same volume (FIG. 1A).
After dissolving an N-acetyl or N-acylamino acid in phosphate-buffered saline to 0.1%, 200 μL of the solution was applied on the back skin of the mice every day, from day 22 until day 28 for the Balb/c atopic dermatitis model, and from day 15 until day 21 for the Nc/Nga atopic dermatitis model. When the N-acetyl or N-acylamino acid was treated together with DNFB, they were treated with 12-hour intervals in order to avoid direct reaction between the DNFB and the N-acetyl or N-acylamino acid. A non-treated group and a 2,4-dinitrofluorobenzene (DNFB) group were treated with phosphate-buffered saline of the same volume (FIGS. 1A-1B). As the N-acetylamino acid, products purchased from Sigma-Aldrich (USA), MP scientific (USA), TCI (Tokyo Chemical Industry, Japan), Santacruz (USA), etc. were used without purification.
The degree of skin soothing and the severity of atopic dermatitis were evaluated macroscopically according to the previously established SCORAD (SCORing Atopic Dermatitis) method (Oranje et al., 2007). The degree of symptoms such as edema, erythema, eschar, dryness, abrasion, lichenification, etc. was graded from 0 to 3 (0, no symptom; 1, mild; 2, moderate; 3, severe). The overall dermatitis score was determined from the sum of all individual scores (Table 1). The assessment was performed by an investigator who was blind to the grouping of the mice.

For `CC(=O)N[C@@H](CCC(N)=O)C(=O)O` [N-acetyl-L-glutamine], the “Mouse 1 Erythema” value is 2, the “Mouse 1 Abrasion” value was 2, the “Mouse 1 Dryness” value was 2 and the “Mouse 1 Edema” value turned out to be 2. Also, the “Mouse 1 Eschar” value stood at 2, the “Mouse 1 Lichenification” value is 3, the “Mouse 1 Sum” value is listed as 13 and the “Mouse 2 Abrasion” value was 2. Moreover, the “Mouse 2 Dryness” value was 2, the “Mouse 2 Edema” value came to 2, the “Mouse 2 Erythema” value turned out to be 2 and the “Mouse 2 Eschar” value was determined as 2. Further, the “Mouse 2 Lichenification” value was determined as 2, the “Mouse 2 Sum” value is on record as 12, the “Mouse 3 Abrasion” value amounted to 2 and the “Mouse 3 Dryness” value was 2. Besides, the “Mouse 3 Edema” value was 2, the “Mouse 3 Erythema” value was determined as 2, the “Mouse 3 Eschar” value was 2 and the “Mouse 3 Lichenification” value is 1. For the same compound, the “Mouse 3 Sum” value is 11 and the “Mean (of Sum, SCORAD)” value is on record as 12.
Turning to `CC(=O)N[C@@H](CCC(=O)O)C(=O)O` [N-acetyl-L-glutamic acid], the “Mouse 1 Erythema” value is 3, the “Mouse 1 Abrasion” value is 2, the “Mouse 1 Dryness” value is listed as 2 and the “Mouse 1 Edema” value is 2. Further, the “Mouse 1 Eschar” value is 2, the “Mouse 1 Lichenification” value amounted to 3, the “Mouse 1 Sum” value came out at 14 and the “Mouse 2 Abrasion” value stood at 2. Besides, the “Mouse 2 Dryness” value amounted to 3, the “Mouse 2 Edema” value is given as 2, the “Mouse 2 Erythema” value is listed as 2 and the “Mouse 2 Eschar” value came out at 2. Further, the “Mouse 2 Lichenification” value worked out at 2, the “Mouse 2 Sum” value is on record as 13, the “Mouse 3 Abrasion” value came out at 2 and the “Mouse 3 Dryness” value was 3. In addition, the “Mouse 3 Edema” value was found to be 2, the “Mouse 3 Erythema” value is 1, the “Mouse 3 Eschar” value came to 2 and the “Mouse 3 Lichenification” value was found to be 2. The “Mouse 3 Sum” value was 12 and the “Mean (of Sum, SCORAD)” value came out at 13.
`CC(=O)N[C@@H](CO)C(=O)O` [N-acetyl-L-serine]: the “Mouse 1 Erythema” value worked out at 3, the “Mouse 1 Abrasion” value turned out to be 2, the “Mouse 1 Dryness” value stood at 2 and the “Mouse 1 Edema” value is reported as 2. For the same compound, the “Mouse 1 Eschar” value is 2, the “Mouse 1 Lichenification” value is 2, the “Mouse 1 Sum” value is 13 and the “Mouse 2 Abrasion” value is recorded as 2. Besides, the “Mouse 2 Dryness” value is reported as 3, the “Mouse 2 Edema” value is 2, the “Mouse 2 Erythema” value was 3 and the “Mouse 2 Eschar” value is recorded as 2. Also, the “Mouse 2 Lichenification” value turned out to be 3, the “Mouse 2 Sum” value stood at 15, the “Mouse 3 Abrasion” value came to 2 and the “Mouse 3 Dryness” value is given as 3. The “Mouse 3 Edema” value is given as 2, the “Mouse 3 Erythema” value is reported as 3, the “Mouse 3 Eschar” value was determined as 2 and the “Mouse 3 Lichenification” value worked out at 2. In addition, the “Mouse 3 Sum” value stood at 14 and the “Mean (of Sum, SCORAD)” value was 14.
`CC(=O)N[C@@H](CC(N)=O)C(=O)O` [N-acetyl-L-asparagine]: the “Mouse 1 Erythema” value is 3, the “Mouse 1 Abrasion” value stood at 3, the “Mouse 1 Dryness” value was 3 and the “Mouse 1 Edema” value amounted to 2. Also, the “Mouse 1 Eschar” value turned out to be 2, the “Mouse 1 Lichenification” value was 2, the Mouse 1 Sum worked out at 15 and the “Mouse 2 Abrasion” value was determined as 3. Besides, the “Mouse 2 Dryness” value turned out to be 2, the “Mouse 2 Edema” value came out at 2, the “Mouse 2 Erythema” value amounted to 2 and the “Mouse 2 Eschar” value was determined as 3. Further, the “Mouse 2 Lichenification” value was 3, the “Mouse 2 Sum” value amounted to 14, the “Mouse 3 Abrasion” value is reported as 2 and the “Mouse 3 Dryness” value stood at 3. Moreover, the “Mouse 3 Edema” value is 3, the “Mouse 3 Erythema” value amounted to 3, the “Mouse 3 Eschar” value was determined as 3 and the “Mouse 3 Lichenification” value is given as 2. Also, the “Mouse 3 Sum” value is 16 and the “Mean (of Sum, SCORAD)” value is reported as 15.
In the case of `CC(=O)NCC(=O)O` [N-acetyl-L-glycine], the “Mouse 1 Erythema” value is on record as 3, the “Mouse 1 Abrasion” value is given as 2, the “Mouse 1 Dryness” value is given as 2 and the “Mouse 1 Edema” value came out at 2. Further, the “Mouse 1 Eschar” value worked out at 2, the “Mouse 1 Lichenification” value is recorded as 3, the “Mouse 1 Sum” value stood at 14 and the “Mouse 2 Abrasion” value turned out to be 2. The “Mouse 2 Dryness” value is 3, the “Mouse 2 Edema” value stood at 2, the “Mouse 2 Erythema” value is reported as 3 and the “Mouse 2 Eschar” value stood at 2. For the same compound, the “Mouse 2 Lichenification” value turned out to be 3, the “Mouse 2 Sum” value was 15, the “Mouse 3 Abrasion” value was 2 and the “Mouse 3 Dryness” value came to 3. For the same compound, the “Mouse 3 Edema” value stood at 2, the “Mouse 3 Erythema” value was found to be 3, the “Mouse 3 Eschar” value came out at 2 and the “Mouse 3 Lichenification” value was 3. Also, the “Mouse 3 Sum” value is given as 15 and the “Mean (of Sum, SCORAD)” value is recorded as 14.67.
Regarding `CC(=O)N[C@H](C(=O)O)C(C)C` [N-acetyl-L-valine], the “Mouse 1 Erythema” value amounted to 3, the “Mouse 1 Abrasion” value is given as 2, the “Mouse 1 Dryness” value amounted to 2 and the “Mouse 1 Edema” value stood at 2. The “Mouse 1 Eschar” value was determined as 2, the “Mouse 1 Lichenification” value stood at 3, the “Mouse 1 Sum” value is recorded as 14 and the “Mouse 2 Abrasion” value was found to be 2. For the same compound, the “Mouse 2 Dryness” value turned out to be 2, the “Mouse 2 Edema” value worked out at 2, the “Mouse 2 Erythema” value was found to be 2 and the “Mouse 2 Eschar” value worked out at 2. The “Mouse 2 Lichenification” value is reported as 3, the “Mouse 2 Sum” value came to 13, the “Mouse 3 Abrasion” value worked out at 1 and the “Mouse 3 Dryness” value was 3. Further, the “Mouse 3 Edema” value is on record as 2, the “Mouse 3 Erythema” value is listed as 2, the “Mouse 3 Eschar” value stood at 2 and the “Mouse 3 Lichenification” value was 2. In addition, the “Mouse 3 Sum” value turned out to be 12 and the “Mean (of Sum, SCORAD)” value amounted to 13.
Turning to `CC(=O)N[C@@H](CCCCN)C(=O)O` [N-acetyl-L-Lysine], the “Mouse 1 Erythema” value is listed as 3, the “Mouse 1 Abrasion” value is 2, the “Mouse 1 Dryness” value is reported as 3 and the “Mouse 1 Edema” value was determined as 2. The “Mouse 1 Eschar” value was 2, the “Mouse 1 Lichenification” value turned out to be 1, the “Mouse 1 Sum” value is listed as 13 and the “Mouse 2 Abrasion” value is 2. Also, the “Mouse 2 Dryness” value is 2, the “Mouse 2 Edema” value worked out at 3, the “Mouse 2 Erythema” value turned out to be 3 and the “Mouse 2 Eschar” value is on record as 2. Besides, the “Mouse 2 Lichenification” value was 3, the “Mouse 2 Sum” value is recorded as 15, the “Mouse 3 Abrasion” value was determined as 2 and the “Mouse 3 Dryness” value was determined as 3. Besides, the “Mouse 3 Edema” value was determined as 2, the “Mouse 3 Erythema” value was 3, the “Mouse 3 Eschar” value stood at 2 and the “Mouse 3 Lichenification” value came to 2. Also, the “Mouse 3 Sum” value came out at 14 and the “Mean (of Sum, SCORAD)” value turned out to be 14.
In the case of `CC(=O)N1CCC[C@H]1C(=O)O` [N-acetyl-L-proline], the “Mouse 1 Erythema” value is listed as 3, the “Mouse 1 Abrasion” value came to 2, the “Mouse 1 Dryness” value was 3 and the “Mouse 1 Edema” value was determined as 2. For the same compound, the “Mouse 1 Eschar” value is 1, the “Mouse 1 Lichenification” value amounted to 2, the “Mouse 1 Sum” value came out at 13 and the “Mouse 2 Abrasion” value is given as 2. Besides, the “Mouse 2 Dryness” value was 3, the “Mouse 2 Edema” value is on record as 3, the “Mouse 2 Erythema” value was found to be 2 and the “Mouse 2 Eschar” value stood at 2. Moreover, the “Mouse 2 Lichenification” value turned out to be 2, the “Mouse 2 Sum” value turned out to be 14, the “Mouse 3 Abrasion” value was found to be 1 and the “Mouse 3 Dryness” value is given as 3. Besides, the “Mouse 3 Edema” value is reported as 2, the “Mouse 3 Erythema” value worked out at 3, the “Mouse 3 Eschar” value was found to be 2 and the “Mouse 3 Lichenification” value stood at 2. In addition, the “Mouse 3 Sum” value came to 13 and the “Mean (of Sum, SCORAD)” value is 13.33.
